Here are results for 51 compounds from the Deep4Chem optical property database.

This data set is described as follows: solvent given as SMILES.
The mark [1] stands for this setting: in O=P(c1ccccc1)(c1ccccc1)c1ccccc1Oc1ccccc1P(=O)(c1ccccc1)c1ccccc1.

Values joined by “and” are separate entries in the source; they are usually repeats but may differ in a detail not shown here. Equal entries are not always repeated.

The compound `Cc1ccc(S(=O)(=O)/N=c2\oc3cccc4c5c(-c6ccccc6)oc6cccc(c(c2-c2ccccc2)c34)c65)cc1` yielded a fluorescence lifetime (in ClC(Cl)Cl) of 3.4 ns.
For the compound `COc1ccc2c(c1)c1cc(OC)ccc1n2-c1ccc(S(=O)(=O)c2ccc(-n3c4ccc(OC)cc4c4cc(OC)ccc43)cc2)cc1`, the fluorescence lifetime (in Cc1ccccc1) worked out at 11 ns.
In the case of `O=S1(=O)c2ccccc2-c2cc(-c3c4ccccc4cc4ccccc34)ccc21`, the fluorescence lifetime turned out to be 3.3 ns (in C1CCCCC1), 3.8 ns (in CC#N) and 3.4 ns (in ClCCl).
With `CCN(CC)c1ccc2c(C)cc(=O)oc2c1`, the fluorescence lifetime is 2.8 ns (in C1CCCCC1); 3.4 ns (in CC#N); 3.69 ns (in CCCCCCCCO); 3.68 ns (in CCCCCCO); 3.55 ns (in CCCCO); 3.48 ns (in CCCO). Also, the fluorescence lifetime runs as follows: (in CCO) 3.15 ns and 2.04 ns and 3.1 ns; (in CCOC(C)=O) 3.1 ns; (in CO) 1.94 ns; (in O) 0.36 ns; (in OCC(O)CO) 3.8 ns.
As for `Cc1ccc2c(c1)C(c1ccccc1)(c1ccccc1)c1cc(C)ccc1N2c1ccc2c(c1)Oc1ccccc1B2c1c(C(C)C)cc(C(C)C)cc1C(C)C`, the fluorescence lifetime turned out to be 23 ns (in Cc1ccccc1) and 28 ns (in O=P(c1ccccc1)(c1ccccc1)c1ccc2oc3ccc(P(=O)(c4ccccc4)c4ccccc4)cc3c2c1).
Turning to `CCN1\C(=C/C=C/C=C/C2=[N+](CC)c3ccc4cc(Br)ccc4c3C2(C)C)C(C)(C)c2c1ccc1cc(Br)ccc21`, the fluorescence lifetime reads like this: (in C1CCOC1) 1.37 ns; (in CC#N) 1.01 ns; (in CC(C)=O) 1.12 ns; (in CCO) 1.03 ns; (in CN(C)C=O) 1.39 ns; (in CO) 0.84 ns. This compound gave a fluorescence lifetime (in CS(C)=O) of 1.5 ns and a fluorescence lifetime (in ClCCl) of 1.46 ns.
`N#CC=C(c1ccc(N2c3ccccc3Oc3ccccc32)cc1)c1ccc(N2c3ccccc3Oc3ccccc32)cc1` came in with a fluorescence lifetime (in Cc1ccccc1) of 5.84 ns.
For the compound `Brc1cc(/C=C/c2ccc(N(c3ccccc3)c3ccccc3)cc2)c(Br)cc1/C=C/c1ccc(N(c2ccccc2)c2ccccc2)cc1`, the fluorescence lifetime (in ClCCl) is 0.89 ns.
With `Cc1ccccc1C`, the fluorescence lifetime (in C1CCCCC1) is 51 ns.
`CC1(C)c2ccccc2N(c2ccc(-c3cnc(C#N)nc3)cc2)c2ccccc21` returned a fluorescence lifetime (in N#Cc1ccc2c(c1)c1ccccc1n2-c1cccc(-n2c3ccccc3c3ccccc32)c1) of 15.7 ns.
The compound `CC[Si](CC)(CC)c1cc2ccc3cccc4ccc(c1C(=O)NC(C)(C)C)c2c34` gave a fluorescence lifetime (in ClC(Cl)Cl) of 7.63 ns.
Under “in CCCO”, `Cn1c2ccccc2c2c1c1ccccc1n2C` registered a fluorescence lifetime of 9 ns.
In the case of `CC1=CC(C)=[N+]2C1=C(c1ccc(I)cc1)c1c(C)cc(C)n1[B-]2(Oc1ccc(Cl)cc1)Oc1ccc(Cl)cc1`, for the setting “in ClC(Cl)Cl”, the fluorescence lifetime worked out at 0.37 ns.
For `O=c1oc2c(ccc3ccccc32)nc1-c1ccccc1`, for the setting “in c1ccccc1”, the fluorescence lifetime is 6 ns.
With `COc1ccccc1`, the fluorescence lifetime (in C1CCCCC1) came out at 11.1 ns.
Regarding `CCn1c2ccccc2c2cc(-c3cc(-c4ccc5c(c4)c4ccccc4n5CC)nc(S(C)(=O)=O)n3)ccc21`, the fluorescence lifetime (in C1CCOC1) is 2.31 ns.
For the compound `O=C(c1ccc(-n2c3ccccc3c3cc(-n4c5ccccc5c5ccccc54)ccc32)cc1)c1ccc(-n2c3ccccc3c3cc(-n4c5ccccc5c5ccccc54)ccc32)cn1`, the fluorescence lifetime under setting [1] came to 62 ns.
`Nc1ccc2ccc([O-])cc2c1` had a fluorescence lifetime (in O) of 2.27 ns.
Regarding `CCCCCCCCCCCCOc1ccc(C#Cc2ccc(C#Cc3ccc(OCCCCCCCCCCCC)c(OCCCCCCCCCCCC)c3)c3nc4c5ccccc5c5ccccc5c4nc23)cc1OCCCCCCCCCCCC`, the fluorescence lifetime (in C1CCOC1) worked out at 8.22 ns, the fluorescence lifetime (in Cc1ccccc1) is 7.13 ns and the fluorescence lifetime (in ClCCl) is 8.62 ns.
Take `N#CCc1ccccc1-c1cc2ccccc2oc1=O`: the fluorescence lifetime (in ClC(Cl)Cl) worked out at 1.4 ns.
In turn, `CCC1(CC)c2ccccc2-c2c1c1c(c3c2C(CC)(CC)c2cc(B(c4c(C)cc(C)cc4C)c4c(C)cc(C)cc4C)ccc2-3)C(CC)(CC)c2ccccc2-1` displayed a fluorescence lifetime (in C1CCOC1) of 3.2 ns.
Under “in ClCCl”, `COC(=O)c1cc(=O)n(C)c2cc(-c3ccc(N4CCN(C)CC4)cc3)sc12` displayed a fluorescence lifetime of 1.5 ns.
In the case of `Cc1ccc2c(c1)c1cc(C)ccc1n2-c1cccc(-n2c3ccc(C)cc3c3cc(C)ccc32)c1C#N`, the fluorescence lifetime is 5.5 ns (in Cc1ccccc1) and 6.6 ns under setting [1].
Regarding `COc1ccc(-c2cc(-c3ccc(C)cc3)nc3c(C#N)c(N4CCCC4)nc(N)c23)cc1`, the fluorescence lifetime (in CC#N) was 11.7 ns; the fluorescence lifetime (in CC(C)=O) is 11.3 ns; the fluorescence lifetime (in CC(C)O) came out at 11.7 ns; the fluorescence lifetime (in CO) is 10.3 ns; the fluorescence lifetime (in ClC(Cl)Cl) was determined as 13.1 ns; the fluorescence lifetime (in ClCCl) is 13.3 ns. For the same compound, the fluorescence lifetime (in c1ccccc1) was 12 ns.
Take `C(=C\N1CCCC1)/c1nc2ccccc2nc1-c1ccccc1`: the fluorescence lifetime was 2.3 ns (in C1CCCCC1); 8.42 ns (in C1CCOC1); 5.28 ns (in CC#N); 6.88 ns (in CC(C)=O); 0.49 ns (in CCO); 0.15 ns (in CO). The fluorescence lifetime turned out to be 2.97 ns (in CS(C)=O), 6.52 ns (in Cc1ccccc1) and 10.2 ns (in ClCCl).
Take `N#Cc1c(-n2c3ccc(-c4ccccc4)cc3c3cc(-c4ccccc4)ccc32)c(-n2c3ccc(-c4ccccc4)cc3c3cc(-c4ccccc4)ccc32)c(C#N)c(-n2c3ccc(-c4ccccc4)cc3c3cc(-c4ccccc4)ccc32)c1-n1c2ccc(-c3ccccc3)cc2c2cc(-c3ccccc3)ccc21`: the fluorescence lifetime (in Cc1ccccc1) was determined as 9 ns.
With `CCCCc1cc(CCCC)c2ccc3c(CCCC)cc(CCCC)c4ccc1c2c43`, the fluorescence lifetime (in CCCCCC) is 65.8 ns, the fluorescence lifetime (in CO) came out at 75 ns and the fluorescence lifetime (in ClCCl) worked out at 56.7 ns.
The compound `COc1ccc(-c2c3ccccc3c(-c3ccc(OC)cc3)c3cc4ccccc4cc23)cc1` displayed a fluorescence lifetime (in ClCCl) of 12.1 ns.
Turning to `C[Si]1(C)c2ccc(-c3cccs3)cc2C=Cc2cc(-c3cccs3)ccc21`, the fluorescence lifetime (in ClCCl) was determined as 2 ns.
For the compound `CN(C)c1ccc2c(c1)-c1ccccc1C2=O`, the fluorescence lifetime amounted to 6.1 ns (in C1CCCCC1), 4.8 ns (in CC#N) and 11 ns (in c1ccccc1).
With `Cc1cc(C)c(B(c2c(C)cc(C)cc2C)c2ccc3ccc4cccc5ccc2c3c45)c(C)c1`, for the setting “in Cc1ccccc1”, the fluorescence lifetime was 3 ns.
`CCCCCCCCCCCn1cccc1C1=[N+]2C(=Cc3c(C)cc(C)n3[B-]2(F)F)c2ccccc21` displayed a fluorescence lifetime (in ClCCl) of 8.89 ns.
`N#Cc1c(-n2c3ccccc3c3ccccc32)c(-n2c3ccc(-c4ccccc4)cc3c3cc(-c4ccccc4)ccc32)c(-n2c3ccccc3c3ccccc32)c(-n2c3ccc(-c4ccccc4)cc3c3cc(-c4ccccc4)ccc32)c1-n1c2ccccc2c2ccccc21` returned a fluorescence lifetime (in Cc1ccccc1) of 5.8 ns and a fluorescence lifetime (in c1cc(-c2cccc(-n3c4ccccc4c4ccccc43)c2)cc(-n2c3ccccc3c3ccccc32)c1) of 4.5 ns.
In the case of `Cc1c(C2=[N+]3C(=Cc4c(C)c5ccccc5n4[B-]3(F)F)c3ccccc32)[nH]c2ccccc12`, the fluorescence lifetime (in ClCCl) is 1.22 ns.
Take `C/C=C/c1ccc(OC)c(OC)c1`: the fluorescence lifetime runs as follows: (in CC#N) 4 ns; (in CCCCCC) 3.7 ns.
On to `CCNc1cc2oc(=O)cc(C(F)(F)F)c2cc1C`, for which, for the setting “in CC#N”, the fluorescence lifetime stood at 7.7 ns.
On to `CCOC(=O)c1ccc2c(c1)[nH]c1c3ccc(C(=O)OCC)cc3[se]c21`, for which the fluorescence lifetime (in CCCO) amounted to 0.15 ns.
`Cc1cc(C)cc(C)c1`: the fluorescence lifetime (in C1CCCCC1) came to 73 ns.
In the case of `CCCCc1cc2cccc[n+]2[b-]2c(-c3cccc4[b-]3[n+]3ccccc3cc4CCCC)cccc21`, for the setting “in C1CCCCC1”, the fluorescence lifetime was 4.3 ns.
On to `CCCCCCCc1ccc(C2=[N+]3C(=C4c5cc(OCC(CC)CC)c(-c6ccc(CCCCCCC)o6)n5[B-](F)(F)[n+]5c4n(c4cc(C(C)(C)C)ccc45)[B-]3(F)F)C=C2OCC(CC)CC)o1`, for which the fluorescence lifetime was 0.4 ns (in C1CCOC1) and 0.4 ns (in ClCCl).
In the case of `c1cc2c3c(cccc3c1)C(N1CCOCCOCCOCCOCC1)=N2`, the fluorescence lifetime (in CC#N) turned out to be 0.55 ns.
In the case of `CN1CCN(CCCN2c3ccccc3Sc3ccc(C(F)(F)F)cc32)CC1`, the fluorescence lifetime reads like this: (in CC#N) 2.68 ns; (in CO) 2.52 ns; (in O) 3.01 ns.
With `CC[Si](CC)(CC)Oc1cccc(O[Si](CC)(CC)CC)c1-c1c2ccccc2c(-c2c(O[Si](CC)(CC)CC)cccc2O[Si](CC)(CC)CC)c2ccccc12`, under “in C1CCCCC1”, the fluorescence lifetime came to 7.8 ns.
On to `CNCCCC1c2ccccc2C=Cc2ccccc21`, for which the fluorescence lifetime reads like this: (in CC#N) 2.41 ns; (in CO) 2.38 ns; (in O) 2.56 ns.
Turning to `C(=C\c1ccc2ccccc2c1)/c1ccc(N(c2ccccc2)c2ccccc2)cc1`, the fluorescence lifetime worked out at 1.09 ns (in CC#N) and 0.4 ns (in CCCCCC).
For `N#Cc1c(-n2c3ccccc3c3cc(Br)ccc32)c(C#N)c(-n2c3ccccc3c3cc(Br)ccc32)c(-n2c3ccccc3c3cc(Br)ccc32)c1-n1c2ccccc2c2cc(Br)ccc21`, the fluorescence lifetime (in Cc1ccccc1) amounted to 0.4 ns.
As to `CC(C)(C)[Si](C)(C)c1ccc([Si](C)(C)C(C)(C)C)c2ccccc12`, the fluorescence lifetime (in C1CCCCC1) amounted to 12 ns.
`N#Cc1cc(C#N)c(-n2c3ccccc3c3ccccc32)cc1-n1c2ccccc2c2ccccc21` returned a fluorescence lifetime (in Cc1ccccc1) of 9 ns.
For the compound `[C-]#[N+]c1ccc(-c2ccc(NC)cc2)cc1`, the fluorescence lifetime was determined as 1.8 ns (in CC#N) and 1.4 ns (in CCOC(C)=O).
In the case of `O=C1CCCC2=C1CC1=C(CCCC1=O)N2NC(=O)c1ccc(O)cc1`, the fluorescence lifetime by setting is: (in CC#N) 6.2 ns; (in CC(C)=O) 5.6 ns; (in CCCCCO) 6.5 ns; (in CO) 4.8 ns; (in ClC(Cl)Cl) 8.2 ns; (in ClCCl) 5.4 ns.
With `Cc1cc(C#Cc2ccccc2)c2ccc3c(C#Cc4ccccc4)cc(C#Cc4ccccc4)c4ccc1c2c43`, the fluorescence lifetime came out at 1.89 ns (in CS(C)=O) and 1.57 ns (in ClC(Cl)(Cl)Cl).
